{
  "source": "patent US8916562B2",
  "about": "“Methods and compositions for safe and effective treatment of telangiectasia” (Galderma Research & Development SNC, priority 2010, dated 2014)",
  "origin": "cited, not measured here",
  "conditions": "brimonidine ophthalmic treatment, clinical trials",
  "data": [
    {"compound": "Brc1c(NC2=NCCN2)ccc2nccnc12", "note": "[brimonidine, (5-bromo-quinoxalin-6-yl)-(4,5-dihydro-1H-imidazol-2-yl)-amine]", "values": [
      {"measurement": "patients reporting hypertension, palpitations and syncope", "result": "less than 3%"}
    ]}
  ]
}
